Results as given in PMC4434909, “In vitro properties of designed antimicrobial peptides that exhibit potent antipneumococcal activity and produces synergism in combination with penicillin” (Scientific Reports, 2015).
Where “and” joins values, the source holds several entries; their conditions need not be identical. Equal entries are not always repeated. Where two headings read alike, the source gives them in different places. Where no end group is shown, it is not given here.

How the values were obtained:
K. pneumoniae = assay type: cell-based, Klebsiella pneumoniae; conditions: Gram-negative, clinical isolate; broth microdilution, CAMHB, peptides 1.96–250 μg/ml
Source text: (§1) All bacterial strains were obtained from Department of Medical Microbiology, University of Malaya. Clinical isolates were previously obtained from University of Malaya Medical Centre and maintained in the laboratory. Sheep blood agar was used for pneumococcal cultivation purpose. Nutrient agar was used for cultivating E. coli ATCC 25922, S. aureus ATCC 25923, and P. aeruginosa ATCC 15442, Acinetobacter baumanii ATCC 15308, and one clinical isolate for each MRSA, E. cloacae, Citrobacter spp., and K. pneumoniae. For antimicrobial testing, Mueller-Hinton agar (MHA) and cationically-adjusted MHB (CAMHB) were prepared according to the Clinical and Laboratory Standard Institute guidelines. MHA for S. pneumoniae was supplemented with 5% (v/v) defibrinated sheep blood and 5% laked horse blood for CAMHB. All bacterial cultures were stored in multiple vials in brain heart infusion broth supplemented with 10% (v/v) glycerol at −80°C to avoid repeated freeze-thawed cycles on the cells. All freeze-stocked strains were passaged twice prior to experimentation.
(§2) Procedures were performed to determine the MIC of peptides according to the CLSI guidelines[21] against 60 pneumococcal isolates which consisted of 20 isolates each for PRSP, PISP, and PSSP. Strains were grown for 18–24 hrs at 37°C under 5% CO2. Direct suspension of the colonies were made in CAMHB and adjusted to OD625 0.08–0.1 which corresponds to 1 ~ 2 × 10^8 CFU/ml followed by serial ten-fold dilutions to give 1 × 10^6 CFU/ml. Fifty microliters of bacterial suspension was then aliquoted to 96-well round bottom microtiter plates containing equal volume of serially diluted peptides to give final concentrations of peptides encompassing the range of 1.96–250 μg/ml. […] The plates were incubated for 18–24 hrs at 37°C under 5% CO2. MIC was read as the concentration of peptide producing complete inhibition on the visible growth of the test organism. Results were pooled from three independent experiments. MIC range was defined as the range of concentrations where the peptides produce detectable antimicrobial activity. Effective percentage (EP) was the proportion of pneumococcal isolates inhibited within the MIC range. Since the isolates tested were obtained prior to 2008 where major revision in antibiotic susceptibility breakpoints were introduced, thus the pneumococci were defined according to the PEN susceptibility breakpoint (prior 2008) which corresponds to the PEN (oral penicillin V) breakpoint of the revised criteria.
(§3) The broad spectrum antibacterial activity of the peptides against a panel of eight clinically important bacteria was also determined, this includes S. aureus ATCC 25923, E. coli ATCC 25922, P. aeruginosa ATCC 15442, A. baumanii ATCC 15308, and one clinical isolate each for MRSA, E. cloacae, Citrobacter spp., and K. pneumoniae.

PSSP = assay type: cell-based, Streptococcus pneumoniae
Description: (§4) This assay was performed to evaluate the killing kinetics of peptides. One PRSP, PISP, and PSSP isolate were each grown and prepared to 5 × 10^6 CFU/ml. Each isolate in CAMHB was challenged with peptides at two times the respective MIC values. At the indicated time intervals (0, 30, 60, 120, 150, 180, 210, and 240 min; “0” indicate pretreatment), 10 μl of suspension was removed and immediately serially diluted in cold phosphate-buffered saline to arrest further reaction before spread-plated on MHA to obtain viable colony counts. The percentage cell recovered was calculated by dividing the surviving CFU of the treated cells over the surviving CFU of the untreated control cells at the respective time points. Results were pooled from three independent experiments and expressed as mean ± standard deviation (SD).

PRSP, PISP, and PSSP = assay type: cell-based, Streptococcus pneumoniae; conditions: for CFU recovered (viability), all three groups of pneumococci: 5 × 10^6 CFU/ml in CAMHB, plate count, relative to untreated control
Description: as §4

PISP = assay type: cell-based, Streptococcus pneumoniae
Description: as §4

PRSP = assay type: cell-based, Streptococcus pneumoniae
Description: as §4

human erythrocytes = test: Hemolytic activity; assay type: cell-based; conditions: for Hmax: percentage hemolysis at the highest concentration tested (all peptides 250 μg/ml; PEN 4 μg/ml)
Description: Hemolytic assay was performed as described. Freshly drawn human erythrocytes were rinsed three times with PBS and resuspended in PBS to 4% (v/v). One hundred microliters of the suspension was added to 96-well microtiter plate containing equal volume of peptides to give final concentrations of peptides encompassing the range of 1.96–250 μg/ml. PBS and 0.1% (v/v) Triton-X 100 were used as 0% and 100% hemolytic control respectively. Plates were incubated at 37°C for 1 hr. Subsequently, the plate was centrifuged and the supernatant was transferred to a new plate. The release of hemoglobin in the supernatant was monitored at absorbance of 450 nm using Glomax Multidetection system (Promega, USA). Results were pooled from three independent experiments and expressed as mean ± SD. HC10 and HC50 were defined as the peptide concentrations causing 10% and 50% hemolysis on human erythrocytes, respectively. Hmax was the percentage hemolysis observed at the maximum concentration as defined throughout this study (all peptides 250 μg/ml, PEN 4 μg/ml).

MRSA = assay type: cell-based, methicillin-resistant S. aureus
Source text: as §1, §2, §3

A. baumanii ATCC 15308 = assay type: cell-based, Acinetobacter baumanii
Source text: as §1, §2, §3

[1] = 30 min post treatment, 2× MIC, 5 × 10^6 CFU/ml in CAMHB, plate count, relative to untreated control
[2] = average of PRSP, PISP and PSSP, 30 min post treatment, 2× MIC
[3] = concentration causing 10% hemolysis, 4% (v/v) erythrocytes in PBS, 37°C 1 hr, absorbance 450 nm, mean ± SD of three independent experiments
[4] = concentration causing 50% hemolysis, 4% (v/v) erythrocytes in PBS, 37°C 1 hr, absorbance 450 nm, three independent experiments
[5] = mean ± SD of three independent experiments
[6] = Gram-positive, clinical isolate, broth microdilution, CAMHB, peptides 1.96–250 μg/ml
[7] = Gram-negative, broth microdilution, CAMHB, peptides 1.96–250 μg/ml

Substance	MIC, K. pneumoniae (K. pneumoniae)	difference in killing kinetics over PEN, PSSP (PSSP; 2)	difference in killing kinetics over PEN, average (PRSP, PISP, and PSSP; 2)	CFU recovered (viability), all three groups of pneumococci (PRSP, PISP, and PSSP; 30 min post treatment, 2× MIC)	difference in killing kinetics over PEN, PISP (PISP; 2)	difference in killing kinetics over PEN, PRSP (PRSP; 2)	HC10 (human erythrocytes)	HC50 (human erythrocytes; red cells of human, 1 h)	MIC, MRSA (MRSA; methicillin-resistant)	MIC, A. baumanii ATCC 15308 (A. baumanii ATCC 15308; ATCC 15308)	difference in killing kinetics over PEN, PSSP (PSSP; 30 min post treatment, 2× MIC)	difference in killing kinetics over PEN, average (PRSP, PISP, and PSSP; [2])	difference in killing kinetics over PEN, PISP (PISP; 30 min post treatment, 2× MIC)	difference in killing kinetics over PEN, PRSP (PRSP; 30 min post treatment, 2× MIC)	HC10 (human erythrocytes; [3])	HC50 (human erythrocytes; [4])	Hmax (human erythrocytes; [5])	MIC, MRSA (MRSA; [6])	MIC, A. baumanii ATCC 15308 (A. baumanii ATCC 15308; [7])	also measured
GLFDIWAWWRWRR-NH2 [DM2]	>250 µg/mL	54.4%	61.3%	< 6.0%	65.4%	64.1%	114.3 µg/mL	>250 µg/mL	62.5 µg/mL	31.3 µg/mL	–	–	–	–	–	–	–	–	–	CFU recovered, PISP (PISP; [1]): 12.4%; CFU recovered, PRSP (PRSP; [1]): completely killed
GLFDIWKKLRWRR-NH2 [DM5]	250 µg/mL	36.5%	44.4%	–	58.5%	38.1%	> 250 µg/mL	>250 µg/mL	62.5 µg/mL	31.3 µg/mL	–	–	–	–	–	–	–	–	–	–
GLFDIWKKWRWRR-NH2 [DM4]	>250 µg/mL	–	–	–	–	–	–	–	–	–	30.5%	42.4%	57.8%	39.0%	> 250 µg/mL	>250 µg/mL	< 1.0% and 0.6 ± 0.1%	62.5 µg/mL	31.3 µg/mL	–
GLFDIWKWWRWRR-NH2 [DM3]	62.5 µg/mL	57.7%	64.6%	< 6.0%	76.0%	60.0%	52.7 µg/mL	>250 µg/mL	7.81 µg/mL	15.63 µg/mL	–	–	–	–	–	–	–	–	–	hemolysis at the effective MIC level against S. pneumoniae (human erythrocytes; red cells of human, 1 h): ≤ 15%
GLFDKWAWWRWRR-NH2 [DM1]	>250 µg/mL	–	–	–	–	–	–	–	–	–	38.4%	48.5%	54.2%	52.9%	> 250 µg/mL	>250 µg/mL	< 1.0% and 0.5 ± 0.1%	62.5 µg/mL	62.5 µg/mL	–
